One data set can be described thus: Solubility in water. The data set is classed as physicochemical. The text has this: In the development of new drugs, the solubility of drugs is one of the very important factors associated with the bio-absorption rate. […] In addition, drugs with low solubility may crystallize in tissues or cause serious toxicity, and thus, the FDA requires additional research results on oral drugs with low solubility. Furthermore, low solubility may also be the biggest cause of failure in the development of candidate materials.

The test system of data set [1] is Nrf2. The data set is described as follows: Nrf2 functional cell-based assay (DisoveRx), luminescence. Particulars: relative to Compound 15.
Data set [2] relates to Nrf2. Described as above. The settings on record: for EC50: U2OS cells, 6 hours incubation, concentration that activates by 50% relative to the maximum effect. As for the experimental part: In order to confirm the pharmacological activity of the compounds synthesized according to Examples 1 to 18 of the present invention, the effects of the synthesized derivatives on inducing the activity of Nrf2, a major regulator of the defense against oxidative stress, were evaluated by constructing an Nrf2 functional cell-based assay (DisoveRx). Specifically, U2OS cells were used, and after the cell pellet was released with CP 0 reagent, the cells were loaded in an amount of 80 μL into a 96-well plate at a density of 1.5×10^4 cells/well and incubated for 24 hours. The compounds synthesized according to Examples 1 to 18 were diluted 3 times in DMSO at 7 different concentrations to prepare a stock solution. 10 μL. of each compound solution was mixed with 90 μL of CP 0 and added in an amount of 20 μL to each well of the 96-well plate, and each experiment was repeated three times. […] Substrate reagents 1 and 2 were added to the cell assay buffer and mixed, and then 50 μL of the substrate reagent was added to a 96-well plate per well, wrapped in foil, and incubated for 1 hour. Thereafter, the luminescence value was measured at all wavelengths and at integration time of 100 ms using a luminescence spectrophotometer (Molecular Devices). […] The results are shown in Table 5 below, and the efficacy of the compounds was compared as a percentage with respect to the sulforaphane-treated group. As another control group, a chalcone derivative, VSC2 ((F)-1-(2-((2-methoxyphenyl)sulfonyl)vinyl)-2-chlorobenzene, Woo et al., J. Med. Chem., 2014, 57:1473-1487), which has a parent structure similar to that of the present invention, and which has been confirmed to induce activation of Nrf2 through the structural changes of Keap1, was used.

The target of a further data set is T1, CYP 2C9 (Homo sapiens, UniProt P11712).
T1 construct: from tissue; host or cells: human liver microsomes
The data set is described as follows: Inhibition of CYP activity in human liver microsomes, 2C9. The data set is classed as in vitro ADME. The settings on record: 10 μM compound, human liver microsomes 0.25 mg/mL; % activity relative to the negative control. As for the experimental part:
(§1) Thereafter, the reaction was terminated by adding an acetonitrile solution containing an internal standard substrate (terfenadine), followed by centrifugation (14,000 rpm, 4° C.) for 5 minutes. Subsequently, the supernatant was injected into the LC-MS/MS system, and the metabolites of the substrate drugs were simultaneously analyzed to evaluate the inhibitory ability of these compounds on drug metabolic enzymes. The metabolites of each CYP isoenzyme indicator drug generated through the above reaction were analyzed using the Shimadzu Nexera XR system and TSQ vantage (Thermo). A Kinetex C18 column was used as the HPLC column, and distilled water containing 0.1% formic acid and acetonitrile containing 0.1% formic acid were used as the mobile phase. The generated metabolites were quantified using the quantification mode of multiple reaction monitoring (MRM), and data were analyzed with Xcalibur (version 1.6.1).
A general note: Liver microsomes are vesicles of endoplasmic reticulum, rich in cytochrome P450 enzymes.

The target in another data set is T2, CYP 2D6 (Homo sapiens, UniProt P10635).
T2 construct: from tissue; host or cells: human liver microsomes
In words: Inhibition of CYP activity in human liver microsomes, 2D6. The format is in vitro ADME. The settings on record: 10 μM compound, human liver microsomes 0.25 mg/mL; % activity relative to the negative control. As for the experimental part: as §1

A further data set deals with T3, CYP 2C19 (Homo sapiens, UniProt P33261).
T3 construct: from tissue; host or cells: human liver microsomes
The data set is described as follows: Inhibition of CYP activity in human liver microsomes, 2C19. Particulars: 10 μM compound, human liver microsomes 0.25 mg/mL; % activity relative to the negative control. The format is in vitro ADME. As to the method: as §1

The target in the next data set is T4, CYP 1A2 (Homo sapiens, UniProt P05177).
T4 construct: from tissue; host or cells: human liver microsomes
T4 sequence (P05177 1-516): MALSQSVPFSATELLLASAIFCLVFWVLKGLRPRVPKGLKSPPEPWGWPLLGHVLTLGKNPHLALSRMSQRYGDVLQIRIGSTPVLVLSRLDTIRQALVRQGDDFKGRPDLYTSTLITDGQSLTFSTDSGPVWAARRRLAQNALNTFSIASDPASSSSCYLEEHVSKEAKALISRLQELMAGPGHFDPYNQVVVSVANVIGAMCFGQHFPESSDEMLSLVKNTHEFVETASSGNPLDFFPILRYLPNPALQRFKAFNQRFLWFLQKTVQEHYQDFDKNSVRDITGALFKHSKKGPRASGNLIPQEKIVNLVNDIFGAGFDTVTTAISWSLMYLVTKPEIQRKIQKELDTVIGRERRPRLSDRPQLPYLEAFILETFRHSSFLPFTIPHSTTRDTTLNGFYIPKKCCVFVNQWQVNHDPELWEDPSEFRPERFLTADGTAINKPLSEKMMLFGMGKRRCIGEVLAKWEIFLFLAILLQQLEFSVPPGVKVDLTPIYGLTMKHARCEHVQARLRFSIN
In words: Inhibition of CYP activity in human liver microsomes, 1A2. The format is in vitro ADME. Particulars: 10 μM compound, human liver microsomes 0.25 mg/mL; % activity relative to the negative control. As to the method:
as §1

For the next data set, the target named is T5, CYP 3A4 (Homo sapiens, UniProt P08684).
T5 construct: from tissue; host or cells: human liver microsomes
In words: Inhibition of CYP activity in human liver microsomes, 3A4. The format is in vitro ADME. Particulars: 10 μM compound, human liver microsomes 0.25 mg/mL; % activity relative to the negative control. As to the method:
as §1

Bounds are passed on as bounds.

Usually solubility stands for how much of the substance goes into solution per volume. For orientation: EC50 means the midpoint of the concentration-response curve. High values mean weaker potency, low ones greater potency.

T1 sequence (P11712 whole entry): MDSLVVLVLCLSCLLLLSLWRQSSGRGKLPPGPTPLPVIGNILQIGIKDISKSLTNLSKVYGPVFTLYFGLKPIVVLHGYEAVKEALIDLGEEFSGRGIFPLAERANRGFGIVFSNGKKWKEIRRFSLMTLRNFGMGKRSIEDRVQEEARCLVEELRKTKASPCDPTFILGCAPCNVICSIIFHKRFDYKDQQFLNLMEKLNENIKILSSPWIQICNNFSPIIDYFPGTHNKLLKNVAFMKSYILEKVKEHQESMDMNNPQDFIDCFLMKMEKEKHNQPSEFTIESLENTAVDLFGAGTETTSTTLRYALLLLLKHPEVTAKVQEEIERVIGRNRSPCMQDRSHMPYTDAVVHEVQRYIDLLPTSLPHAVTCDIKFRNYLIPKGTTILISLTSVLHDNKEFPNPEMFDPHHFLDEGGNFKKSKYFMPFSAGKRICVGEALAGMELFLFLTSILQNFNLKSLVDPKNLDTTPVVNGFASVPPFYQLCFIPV
T2 sequence (P10635 whole entry): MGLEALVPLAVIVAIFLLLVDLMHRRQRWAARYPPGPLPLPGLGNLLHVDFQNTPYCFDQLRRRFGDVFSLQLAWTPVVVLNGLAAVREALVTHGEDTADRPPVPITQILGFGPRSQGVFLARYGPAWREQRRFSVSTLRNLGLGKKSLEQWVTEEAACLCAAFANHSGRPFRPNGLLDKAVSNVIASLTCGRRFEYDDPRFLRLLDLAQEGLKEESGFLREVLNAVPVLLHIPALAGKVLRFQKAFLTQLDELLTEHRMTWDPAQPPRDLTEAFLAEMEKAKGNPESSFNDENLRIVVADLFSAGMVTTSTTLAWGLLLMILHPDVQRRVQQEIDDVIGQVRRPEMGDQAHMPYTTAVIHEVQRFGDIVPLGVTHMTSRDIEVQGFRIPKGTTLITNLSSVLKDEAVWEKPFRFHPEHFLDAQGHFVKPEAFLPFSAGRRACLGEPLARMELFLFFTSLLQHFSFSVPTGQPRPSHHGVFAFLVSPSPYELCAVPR
T3 sequence (P33261 whole entry): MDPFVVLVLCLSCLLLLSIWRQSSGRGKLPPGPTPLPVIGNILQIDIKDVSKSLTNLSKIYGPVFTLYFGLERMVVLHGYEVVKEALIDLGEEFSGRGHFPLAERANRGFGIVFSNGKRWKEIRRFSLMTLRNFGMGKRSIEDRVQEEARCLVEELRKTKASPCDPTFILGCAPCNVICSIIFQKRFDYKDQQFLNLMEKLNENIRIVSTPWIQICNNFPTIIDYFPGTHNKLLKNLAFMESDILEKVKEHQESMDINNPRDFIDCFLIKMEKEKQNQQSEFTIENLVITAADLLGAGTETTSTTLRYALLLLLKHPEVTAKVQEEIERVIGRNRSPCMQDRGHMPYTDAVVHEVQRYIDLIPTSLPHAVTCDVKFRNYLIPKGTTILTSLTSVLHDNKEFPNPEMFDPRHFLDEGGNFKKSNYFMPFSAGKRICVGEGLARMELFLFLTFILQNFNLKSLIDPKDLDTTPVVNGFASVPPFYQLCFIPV
T5 sequence (P08684 whole entry): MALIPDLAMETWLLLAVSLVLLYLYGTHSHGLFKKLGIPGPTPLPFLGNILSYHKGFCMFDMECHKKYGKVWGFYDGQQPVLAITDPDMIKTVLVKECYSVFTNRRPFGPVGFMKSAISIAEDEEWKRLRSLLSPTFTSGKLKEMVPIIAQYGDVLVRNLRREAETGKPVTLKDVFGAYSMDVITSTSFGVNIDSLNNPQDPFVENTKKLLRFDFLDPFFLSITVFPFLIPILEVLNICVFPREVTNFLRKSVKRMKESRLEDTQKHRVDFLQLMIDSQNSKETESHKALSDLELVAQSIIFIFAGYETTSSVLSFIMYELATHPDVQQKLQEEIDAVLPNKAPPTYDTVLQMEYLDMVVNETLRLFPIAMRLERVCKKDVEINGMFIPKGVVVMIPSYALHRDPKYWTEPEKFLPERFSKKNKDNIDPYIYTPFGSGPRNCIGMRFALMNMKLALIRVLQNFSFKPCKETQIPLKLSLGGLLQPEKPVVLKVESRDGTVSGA

Regarding `COc1ccccc1S(=O)(=O)/C=C/c1cccnc1Cl` [Comparative Example 2, (E)-2-chloro-3-(2-(2-methoxyphenylsulfonyl)vinyl)pyridine, reference compound], the solubility in “Solubility in water” is under 10 µg/mL. Further, in the data set on Nrf2 [1], the “Effect of inducing Nrf2 activity as % of the level of Compound 15” value is given as about 10%.
In the data set with Nrf2 [2], `O=S(=O)(/C=C/c1ncccc1F)c1ccccc1F` [Compound 1, (E)-3-fluoro-2-(2-(2-fluorophenylsulfonyl)vinyl)pyridine] displayed a concentration giving a half-maximal response (EC50) of 176 nM. The “CYP 2C9 activity” value at CYP 2C9 amounted to 100.0%. Further, at CYP 2D6, the “CYP 2D6 activity” value amounted to 87.0%. Besides, the “CYP 2C19 activity” value on CYP 2C19 worked out at 65.9%. The “CYP 1A2 activity” value on CYP 1A2 is reported as 96.0%. Further, the “CYP 3A4 activity” value on CYP 3A4 was determined as 100.0%.
`O=S(=O)(/C=C/c1ncccc1F)c1cccc(F)c1` [Compound 2, (E)-3-fluoro-2-(2-(3-fluorophenylsulfonyl)vinyl)pyridine] displayed an EC50 with Nrf2 [2] of 474 nM.
The compound `O=S(=O)(/C=C/c1ncccc1F)c1ccc(F)cc1` [Compound 3, (E)-3-fluoro-2-(2-(4-fluorophenylsulfonyl)vinyl)pyridine] registered a concentration giving a half-maximal response (EC50) in the data set on Nrf2 [2] of 542 nM.
For the compound `O=S(=O)(/C=C/c1ncccc1Cl)c1ccccc1F` [Compound 4, (E)-3-chloro-2-(2-(2-fluorophenylsulfonyl)vinyl)pyridine], in the data set on Nrf2 [2], a half-maximal response (EC50) required 30 nM. Also, the “CYP 2C9 activity” value on CYP 2C9 stood at 62.6%. The “CYP 2D6 activity” value at CYP 2D6 came to 86.0%. The “CYP 2C19 activity” value on CYP 2C19 stood at 47.3%. Moreover, the “CYP 1A2 activity” value on CYP 1A2 is 96.0%. Also, the “CYP 3A4 activity” value at CYP 3A4 is given as 100.0%.
`O=S(=O)(/C=C/c1ncccc1Cl)c1cccc(F)c1` [Compound 5, (E)-3-chloro-2-(2-(3-fluorophenylsulfonyl)vinyl)pyridine] gave an EC50 in the data set with Nrf2 [2] of 84 nM.
Take `O=S(=O)(/C=C/c1ncccc1Cl)c1ccc(F)cc1` [Compound 6, (E)-3-chloro-2-(2-(4-fluorophenylsulfonyl)vinyl)pyridine]: in the data set with Nrf2 [2], the EC50 is 231 nM.
The compound `O=S(=O)(/C=C/c1ncccc1F)c1ccccc1Cl` [Compound 7, (E)-2-(2-(2-chlorophenylsulfonyl)vinyl)-3-fluoropyridine] came in with a concentration for a half-maximal effect (EC50) with Nrf2 [2] of 122 nM.
In the data set with Nrf2 [2], `O=S(=O)(/C=C/c1ncccc1F)c1cccc(Cl)c1` [Compound 8, (E)-2-(2-(3-chlorophenylsulfonyl)vinyl)-3-fluoropyridine] had a half-maximal effective concentration (EC50) of 198 nM.
`O=S(=O)(/C=C/c1ncccc1F)c1ccc(Cl)cc1` [Compound 9, (E)-2-(2-(4-chlorophenylsulfonyl)vinyl)-3-fluoropyridine] came in with a concentration for a half-maximal effect (EC50) with Nrf2 [2] of 286 nM.
`O=S(=O)(/C=C/c1ncccc1Cl)c1ccccc1Cl` [Compound 10, (E)-3-chloro-2-(2-(2-chlorophenylsulfonyl)vinyl)pyridine] returned an EC50 in the data set on Nrf2 [2] of 26 nM. Further, the “Nrf2 activation effect relative to sulforaphane” value with Nrf2 [2] (ratio to sulforaphane) is listed as at least 15 times.
For the compound `O=S(=O)(/C=C/c1ncccc1Cl)c1cccc(Cl)c1` [Compound 11, (E)-3-chloro-2-(2-(3-chlorophenylsulfonyl)vinyl)pyridine], in the data set on Nrf2 [2], a half-maximal effect (EC50) was put at 46 nM.
Compound `O=S(=O)(/C=C/c1ncccc1Cl)c1ccc(Cl)cc1` [Compound 12, (E)-3-chloro-2-(2-(4-chlorophenylsulfonyl)vinyl)pyridine] registered an EC50 in the data set with Nrf2 [2] of 65 nM.
The compound `O=S(=O)(/C=C/c1cccc(Cl)n1)c1ccccc1Cl` [Compound 13, (E)-2-chloro-6-(2-(2-chlorophenylsulfonyl)vinyl)pyridine] displayed a concentration for a half-maximal effect (EC50) with Nrf2 [2] of 147 nM. Moreover, on CYP 2C9, the “CYP 2C9 activity” value is recorded as 100.0%. The “CYP 2D6 activity” value on CYP 2D6 turned out to be 100.0%. In addition, the “CYP 2C19 activity” value on CYP 2C19 turned out to be 40.0%. The “CYP 1A2 activity” value on CYP 1A2 is reported as 94.0%. Also, the “CYP 3A4 activity” value at CYP 3A4 was 86.0%.
On to `O=S(=O)(/C=C/c1cccnc1Cl)c1ccccc1Cl` [Compound 14, (E)-2-chloro-3-(2-(2-chlorophenylsulfonyl)vinyl)pyridine], for which the midpoint of the response with Nrf2 [2], the EC50, lay at 384 nM.
Take `CN1CCN(C(=O)COc2ccc(S(=O)(=O)/C=C/c3ncccc3F)cc2)CC1.Cl` [Compound 17, (E)-2-(4-(2-(3-fluoropyridin-2-yl)vinylsulfonyl)phenoxy)-1-(4-methylpiperazin-1-yl)ethanone hydrochloride]: the “CYP 2C9 activity” value on CYP 2C9 worked out at 122.0%.

The record behind these values is patent US12234207B2, “Halo-(3-(phenylsulfonyl)prop-1-enyl)pyridine derivative and use thereof” (Cureverse Incorporated, priority 2018, dated 2025).
